Among the data in patent publication US12637471B2, “Heterocyclic compounds, compositions, methods of preparation and uses thereof” (Organon R&D Finland Ltd, priority 2021, dated 2026) are inhibition values, retold here.

Holding throughout (type): biochemical
For experiment [1], the target named is T1, Recombinant human AKR1C3 (17β-HSD5) protein (Homo sapiens, UniProt P42330).
T1 construct: made in house; host or cells: E. coli
T1 sequence (P42330 1-323): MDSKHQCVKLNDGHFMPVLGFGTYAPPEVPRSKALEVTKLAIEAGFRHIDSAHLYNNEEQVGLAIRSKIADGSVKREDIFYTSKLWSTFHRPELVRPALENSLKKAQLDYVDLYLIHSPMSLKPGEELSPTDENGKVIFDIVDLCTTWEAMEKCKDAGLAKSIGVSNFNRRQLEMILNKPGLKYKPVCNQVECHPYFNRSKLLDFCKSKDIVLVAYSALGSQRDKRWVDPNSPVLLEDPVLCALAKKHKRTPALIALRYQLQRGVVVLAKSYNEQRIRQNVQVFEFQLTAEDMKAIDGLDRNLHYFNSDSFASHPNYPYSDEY
The experiment in a line: Inhibition of AKR1C3 (17β-hydroxysteroid dehydrogenase type 5) enzyme, fluorescence assay. The note with it: inhibitor at 500 nM. An outline of the steps:
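Percent inhibition at 500 nM compound, derived from substrate conversion; product alcohol measured by fluorescence (ex 420, em 510 nm) against a 1 μM–10 nM standard curve. Reaction: 27 nM recombinant AKR1C3, 1 μM ketone substrate, 1 mM NADPH, phosphate/EDTA buffer pH 7.4, 1% DMSO, RT for 60–120 min.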

For experiment [2], the target named is T2, Recombinant human aldo-keto reductase family 1 member C2 (AKR1C2) protein (Homo sapiens, UniProt P52895).
T2 construct: made in house; host or cells: Sf-9 insect cells (baculovirus)
T2 sequence (P52895 1-323): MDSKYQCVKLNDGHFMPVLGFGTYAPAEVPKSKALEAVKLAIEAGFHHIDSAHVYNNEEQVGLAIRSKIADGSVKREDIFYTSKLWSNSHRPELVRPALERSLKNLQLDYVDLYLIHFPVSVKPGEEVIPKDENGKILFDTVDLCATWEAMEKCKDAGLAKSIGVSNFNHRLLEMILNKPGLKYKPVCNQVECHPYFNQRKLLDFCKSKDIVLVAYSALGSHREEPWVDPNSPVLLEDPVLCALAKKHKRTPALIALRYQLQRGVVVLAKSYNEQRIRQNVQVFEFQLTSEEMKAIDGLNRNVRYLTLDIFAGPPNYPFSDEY
In words: Inhibition of the aldo-keto reductase family 1 member C2, 3H-dihydrotestosterone conversion. Conditions: inhibitor at 10 μM. An outline of the steps:
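Single-point screen at 10 μM inhibitor, 1% DMSO: [3H]DHT (6.25 nM) reduction to 3α-diol by baculovirus-made AKR1C2 (13.6 nM), pH 7.4 phosphate buffer, 1 mM NADPH, 37 °C for 45 min. Radio-UPLC quantified product versus substrate to give percent inhibition.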

The target in experiment [3] is T3, 17β-Hydroxysteroid Dehydrogenase Type 2 Enzyme (17β-HSD2) (Homo sapiens, UniProt P37059).
T3 construct: made in house; host or cells: Sf-9 insect cells (baculovirus)
T3 sequence (P37059 1-387): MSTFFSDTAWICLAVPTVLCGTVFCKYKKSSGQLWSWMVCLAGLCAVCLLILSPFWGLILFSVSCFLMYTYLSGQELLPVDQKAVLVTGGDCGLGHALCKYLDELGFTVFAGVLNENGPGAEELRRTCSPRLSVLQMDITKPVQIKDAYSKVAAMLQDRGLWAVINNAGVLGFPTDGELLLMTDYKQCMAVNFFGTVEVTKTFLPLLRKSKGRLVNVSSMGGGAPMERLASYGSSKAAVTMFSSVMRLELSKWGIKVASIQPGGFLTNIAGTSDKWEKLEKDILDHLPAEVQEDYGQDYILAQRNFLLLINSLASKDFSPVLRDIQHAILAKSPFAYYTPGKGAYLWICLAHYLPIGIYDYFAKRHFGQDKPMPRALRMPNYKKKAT
In words: Inhibition of the 17β-hydroxysteroid dehydrogenase type 2 enzyme, 3H-testosterone conversion. Conditions: inhibitor at 10 μM. Put shortly:
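Single-point screen at 10 μM inhibitor, 1% DMSO: Sf-9-expressed human enzyme (105 nM), NAD 1 mM, ³H-labelled testosterone 56.25 nM, pH 8.5 phosphate/EDTA buffer, 30 min, room temperature. After TCA quench, substrate and product radioactivity quantified by UPLC with scintillation detection; inhibition percent from conversion.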

One may read the inhibition as the drop in the measured response relative to a control, in per cent.

Turning to `N#CC(=C1CCN(C(=O)N2C3CCC2COC3)CC1)c1cccc(Cl)c1` [Compound 156, 2-(1-(3-oxa-8-azabicyclo[3.2.1]octane-8-carbonyl)piperidin-4-ylidene)-2-(3-chlorophenyl)acetonitrile], in experiment [1], the inhibition at 0.5 µM worked out at 99%. Also, the inhibition at 10 µM in experiment [2] was 8%; in experiment [3] it was 12%.
For the molecule `CCN(CC)C(=O)N1CCC(=C(C#N)c2ccc(Cl)cc2)CC1` [Compound 105, 4-((4-chlorophenyl)(cyano)methylene)-N,N-diethylpiperidine-1-carboxamide], the inhibition at 0.5 µM in experiment [1] amounted to 100%. The inhibition at 10 µM in experiment [2] turned out to be 10%; in experiment [3], 15%.
Taken in the same sequence, the figures for `N#CC(=C1CCN(C(=O)N2CCn3ncnc3C2)CC1)c1ccc(F)cc1` [Compound 26, 2-(4-fluorophenyl)-2-(1-(5,6,7,8-tetrahydro-[1,2,4]triazolo[1,5-a]pyrazine-7-carbonyl)piperidin-4-ylidene)acetonitrile] were 97%, 6% and 13%.
On to `N#CC(=C1CCN(C(=O)N2CCC(CO)CC2)CC1)c1cccc(Cl)c1` [Compound 88, 2-(3-chlorophenyl)-2-(1-(4-(hydroxymethyl)piperidine-1-carbonyl)piperidin-4-ylidene)acetonitrile], for which the inhibition at 0.5 µM in experiment [1] was determined as 99%. Moreover, the inhibition at 10 µM amounted to 13% in experiment [2] and 26% in experiment [3].
Regarding `N#CC(=C1CCN(C(=O)N2CCc3[nH]ncc3C2)CC1)c1ccc(Cl)cc1` [Compound 113, 2-(4-chlorophenyl)-2-(1-(4,5,6,7-tetrahydro-1H-pyrazolo[4,3-c]pyridine-5-carbonyl)piperidin-4-ylidene)acetonitrile], the inhibition at 0.5 µM in experiment [1] stood at 104%. Moreover, the figures for the inhibition at 10 µM in experiment [2] and in experiment [3] were 19% and 16%, respectively.
Regarding `N#CC(=C1CCN(C(=O)N2CCCCC2)CC1)c1ccc(F)cc1` [Compound 3, 2-(4-fluorophenyl)-2-(1-(piperidine-1-carbonyl)piperidin-4-ylidene)acetonitrile], the inhibition at 0.5 µM in experiment [1] is 95%. Also, the values for the inhibition at 10 µM in experiment [2] and in experiment [3] were 18% and 28%, respectively.
On the same counts, the results for `COCC1CCN(C(=O)N2CCC(=C(C#N)c3ccc(Cl)s3)CC2)CC1` [Compound 75, 2-(5-chlorothiophen-2-yl)-2-(1-(4-(methoxymethyl)piperidine-1-carbonyl)piperidin-4-ylidene)acetonitrile] are 94%, 13% and 23%.
Consider `N#CC(=C1CCN(C(=O)N2CCc3[nH]ncc3C2)CC1)c1cccc2[nH]ncc12` [Compound 60, 2-(1H-indazol-4-yl)-2-(1-(4,5,6,7-tetrahydro-1H-pyrazolo[4,3-c]pyridine-5-carbonyl)piperidin-4-ylidene)acetonitrile], for which the inhibition at 0.5 µM in experiment [1] was 98%. Further, the figures for the inhibition at 10 µM in experiment [2] and in experiment [3] were 9% and 29%, respectively.
As to `CC(O)C1CCN(C(=O)N2CCC(=C(C#N)c3ccc(C(F)(F)F)cc3)CC2)CC1` (stereo not drawn) [Compound 151, 2-(1-(4-(1-hydroxyethyl)piperidine-1-carbonyl)piperidin-4-ylidene)-2-(4-(trifluoromethyl)phenyl)acetonitrile], the inhibition at 0.5 µM in experiment [1] is 93%. In addition, the inhibition at 10 µM in experiment [2] came to 11%; in experiment [3] it was 18%.
Regarding `N#CC(=C1CCN(C(=O)N2CCC(O)CC2)CC1)c1cccc2[nH]ncc12` [Compound 48, 2-(1-(4-hydroxypiperidine-1-carbonyl)piperidin-4-ylidene)-2-(1H-indazol-4-yl)acetonitrile], in experiment [1], the inhibition at 0.5 µM worked out at 100%. The inhibition at 10 µM in experiment [2] came to 0%; in experiment [3], 8%.
On the same counts, the results for `Cn1ncc2cccc(C(C#N)=C3CCN(C(=O)N4CCc5nocc5C4)CC3)c21` [Compound 136, 2-(1-methyl-1H-indazol-7-yl)-2-(1-(4,5,6,7-tetrahydroisoxazolo[4,3-c]pyridine-5-carbonyl)piperidin-4-ylidene)acetonitrile] are 99%, 6% and 26%.
For `N#CC(=C1CCN(C(=O)N2CCn3cncc3C2)CC1)c1ccc(Cl)cn1` [Compound 68, 2-(5-chloropyridin-2-yl)-2-(1-(5,6,7,8-tetrahydroimidazo[1,5-a]pyrazine-7-carbonyl)piperidin-4-ylidene)acetonitrile], the inhibition at 0.5 µM in experiment [1] was found to be 98%. Further, the inhibition at 10 µM is 11% in experiment [2] and 8% in experiment [3].
For the molecule `COC1CCN(C(=O)N2CCC(=C(C#N)c3ccc(Cl)cc3)CC2)CC1` [Compound 79, 2-(4-chlorophenyl)-2-(1-(4-methoxypiperidine-1-carbonyl)piperidin-4-ylidene)acetonitrile], the inhibition at 0.5 µM in experiment [1] amounted to 99%. For the same molecule, the inhibition at 10 µM in experiment [2] came out at 6%; in experiment [3], 10%.
With `N#CC(=C1CCN(C(=O)N2CCc3sccc3C2)CC1)c1ccc(OC(F)(F)F)cc1` [Compound 117, 2-(1-(4,5,6,7-tetrahydrothieno[3,2-c]pyridine-5-carbonyl)piperidin-4-ylidene)-2-(4-(trifluoromethoxy)phenyl)acetonitrile], in experiment [1], the inhibition at 0.5 µM came out at 94%. Moreover, the inhibition at 10 µM in experiment [2] turned out to be 7%; in experiment [3] it was 22%.
Taken in the same sequence, the figures for `CCOC1CCN(C(=O)N2CCC(=C(C#N)c3cccc(Cl)c3)CC2)CC1` [Compound 129, 2-(3-chlorophenyl)-2-(1-(4-ethoxypiperidine-1-carbonyl)piperidin-4-ylidene)acetonitrile] were 98%, 11% and 5%.
For `CN(C(=O)N1CCC(=C(C#N)c2ccc(Cl)cc2)CC1)C1CCOCC1` [Compound 69, 4-((4-chlorophenyl)(cyano)methylene)-N-methyl-N-(tetrahydro-2H-pyran-4-yl)piperidine-1-carboxamide], the inhibition at 0.5 µM in experiment [1] is 98%. The inhibition at 10 µM in experiment [2] stood at 16%; in experiment [3], 10%.
On the same counts, the results for `N#CC(=C1CCN(C(=O)N2CCC(O)CC2)CC1)c1n[nH]c2ccc(F)cc12` [Compound 94, 2-(5-fluoro-1H-indazol-3-yl)-2-(1-(4-hydroxypiperidine-1-carbonyl)piperidin-4-ylidene)acetonitrile] are 97%, 7% and 8%.
On the same counts, the results for `CC(C)OC1CCN(C(=O)N2CCC(=C(C#N)c3cccc(Cl)c3)CC2)CC1` [Compound 139, 2-(3-chlorophenyl)-2-(1-(4-isopropoxypiperidine-1-carbonyl)piperidin-4-ylidene)acetonitrile] are 93%, 8% and 27%.
In the case of `COC1CCN(C(=O)N2CCC(=C(C#N)c3cccc4[nH]ncc34)CC2)CC1` [Compound 144, 2-(1H-indazol-4-yl)-2-(1-(4-methoxypiperidine-1-carbonyl)piperidin-4-ylidene)acetonitrile], the inhibition at 0.5 µM in experiment [1] amounted to 100%. The inhibition at 10 µM in experiment [2] was 5%; in experiment [3] it was 16%.
